Experiment: wn = mass fraction of the nth substance listed
Details: Liquid, Vibrating tube method

CCCC[N+](CCCC)(CCCC)CCCC.[Br-] [tetrabutylammonium bromide] + O
mass density [kg/m3]
Details | 283.15 K | 285.15 K | 288.15 K | 291.15 K | 293.15 K | 298.15 K | 303.15 K
100 kPa, w1 = 0.1 | 1008.7 | 1008.3 | 1007.6 | 1006.7 | 1006.2 | 1004.9 | 1003.2
100 kPa, w1 = 0.14 | 1012.9 | 1012.6 | 1011.6 | 1010.9 | 1010 | 1008.4 | 1006.3
100 kPa, w1 = 0.2 | 1019.9 | 1019.3 | 1018.1 | 1017 | 1016.3 | 1014.2 | 1011.9
100 kPa, w1 = 0.3 | – | – | 1029 | 1027.4 | 1026.3 | 1023.7 | 1020.7
100 kPa, w1 = 0.4 | – | – | 1038.5 | 1036.7 | 1035.3 | 1031.9 | 1028.6
1000 kPa, w1 = 0.1 | – | – | 1008 | 1007.1 | 1006.7 | 1005.3 | 1003.7
1000 kPa, w1 = 0.14 | – | – | 1012.1 | 1011.2 | 1010.4 | 1008.7 | 1006.6
1000 kPa, w1 = 0.2 | – | – | 1018.6 | 1017.4 | 1016.7 | 1014.5 | 1012.4
1000 kPa, w1 = 0.3 | – | – | 1029.4 | 1027.7 | 1026.8 | 1024 | 1021.2
1000 kPa, w1 = 0.4 | – | – | 1039 | 1037 | 1035.7 | 1032.3 | 1029.2
2000 kPa, w1 = 0.1 | – | – | 1008.4 | 1007.6 | 1007 | 1005.7 | 1004.1
2000 kPa, w1 = 0.14 | – | – | 1012.5 | 1011.6 | 1010.8 | 1009.1 | 1007
2000 kPa, w1 = 0.2 | – | – | 1019 | 1017.8 | 1017 | 1014.9 | 1012.8
2000 kPa, w1 = 0.3 | – | – | 1029.7 | 1028.1 | 1027.1 | 1024.4 | 1021.6
2000 kPa, w1 = 0.4 | – | – | 1039.4 | 1037.4 | 1036 | 1032.7 | 1029.5
3000 kPa, w1 = 0.1 | – | – | 1008.9 | 1008 | 1007.5 | 1006.1 | 1004.5
3000 kPa, w1 = 0.14 | – | – | 1012.9 | 1012 | 1011.2 | 1009.5 | 1007.4
3000 kPa, w1 = 0.2 | – | – | 1019.4 | 1018.2 | 1017.5 | 1015.3 | 1013.2
3000 kPa, w1 = 0.3 | – | – | 1030.1 | 1028.5 | 1027.5 | 1024.8 | 1022
3000 kPa, w1 = 0.4 | – | – | 1039.7 | 1037.8 | 1036.4 | 1033 | 1029.9
4000 kPa, w1 = 0.1 | – | – | 1009.2 | 1008.4 | 1007.9 | 1006.5 | 1005
4000 kPa, w1 = 0.14 | – | – | 1013.3 | 1012.4 | 1011.6 | 1009.9 | 1007.7
4000 kPa, w1 = 0.2 | – | – | 1019.7 | 1018.6 | 1017.8 | 1015.7 | 1013.6
4000 kPa, w1 = 0.3 | – | – | 1030.4 | 1028.8 | 1027.9 | 1025.1 | 1022.4
4000 kPa, w1 = 0.4 | – | – | 1040.1 | 1038.1 | 1036.8 | 1033.3 | 1030.3
5000 kPa, w1 = 0.1 | – | – | 1009.7 | 1008.7 | 1008.3 | 1006.9 | 1005.4
5000 kPa, w1 = 0.14 | – | – | 1013.7 | 1012.7 | 1012.1 | 1010.3 | 1008.1
5000 kPa, w1 = 0.2 | – | – | 1020.1 | 1018.8 | 1018.2 | 1016.1 | 1014
5000 kPa, w1 = 0.3 | – | – | 1030.7 | 1029.1 | 1028.2 | 1025.5 | 1022.7
5000 kPa, w1 = 0.4 | – | – | 1040.4 | 1038.4 | 1037.1 | 1033.7 | 1030.7

Source: the NIST ThermoML archive (doi:10.1021/je400272k)
